Results as given in patent US12258561B2, “Compositions and methods to promote bone formation and their uses including for the treatment of cancer” (THE RESEARCH FOUNDATION FOR THE STATE UNIVERSITY OF NEW YORK, priority 2014, dated 2025).
“Also recorded” adds a separate entry of the source.

Assays:
[1] = system: Hs822t Ewing's sarcoma of bone tumor cells; experiment: Assay of cell number (MTT), Hs822t cells; type: cell-based
Excerpt: (§1) Methods: Human bone marrow was collected from consenting adult patients undergoing either an elective primary proximal femoral total hip arthroplasty or elective primary distal femoral total knee arthroplasty (n=6, mean age 65) as a part of an IRB approved study. Human MSC were derived from the adherent fraction of whole bone marrow aspirates. Ewing's sarcoma tumor cells (RDES, Hs822 and Hs863) and SaOS2 osteosarcoma tumor cells were obtained from ATCC. Cells were maintained in Dulbecco's Modification of Eagle's Media (DMEM) containing 10% fetal calf serum (v/v) and 1% penicillin-streptomycin-glutamine (PSG; Cellgro, Mediatech).
(§2) Assay of Cell Number: Following the addition of 1-mM naloxone or 1-mM naltrexone, viable cell number was determined with the MTT assay. After 72-hours and 120-hours, MTT (5 mg/ml (w/v), Sigma) was added to each well, incubated for 2-hours, after which the cells lysed with 500-μl of DMSO (Sigma). MTT was measured at 570-nm and the effects of therapy on cell proliferation were determined by normalizing treated wells relative to mean values from non-treated wells: Fold change in cell number=100*[treated cells optical density/mean control optical density].

[2] = system: RDES Ewing's sarcoma of bone tumor cells; experiment: Assay of cell number (MTT), RDES cells; type: cell-based
Excerpt: as §1, §2

[3] = system: MSC cultures induced to become osteoblasts; experiment: Osteogenesis: mineral formation in MSC with osteoinduction media (alizarin red-S staining); type: cell-based, human
Excerpt: Methods: Human Bone Marrow was Collected from Consenting Adult Patients undergoing either an elective primary proximal femoral total hip arthroplasty or elective primary distal femoral total knee arthroplasty (n=6, mean age 65) as a part of an IRB approved study. Human MSC were derived from the adherent fraction of cells derived from each whole bone marrow aspirate collected, while the monocyte population was collected from the non-adherent fraction of the bone marrow. The monocyte fraction was enriched through sub-culture with 100-ng/mL recombinant human macrophage colony-stimulating factor (MCSF; Wyeth). In parallel experiments described below, the femurs from 3-week (n=10) and 16-week (n=20) old male mice were collected and then the bone marrow was flushed from the femur according to the following: A 21-gauge needle was inserted into the femoral intramedular canal after the removal of the proximal and distal ends of the femur. Media was then carefully passed through the proximal end of the femur, which forced the bone marrow to pass out of the bone. Finally, the bone marrow pellet was mechanically disassociated using an 18-gauge needle and then passed through a 70-μm mesh filter. These whole bone marrow aspirates were used to generate osteoclasts. Cells were maintained in Dulbecco's Modification of Eagle's Media (DMEM) containing 10% fetal calf serum (v/v) and 1% penicillin-streptomycin-glutamine (PSG; Cellgro, Mediatech). […] The responsible IACUC committee approved all of the animal studies described in this work.
Osteogenesis: Osteogenic potential in MSC was assayed by chemically inducing mineral formation. MSC from at least three human patients were seeded at 5×10^3 cells per well and allowed to become confluent and woven prior to the addition of osteo-induction media. Induction media consisted of DMEM containing 20% FCS (v/v) and 1% PSG supplemented with 25-μg/mL of acscorbic-2-phosphate (Sigma), 100-nM dexamethasone (Sigma) and the following dosing regimen of β-glycerophosphate (BGP; Sigma): 1× media change with 5-mM BGP, 1× media change with 10-mM BGP and 1× media change with 20-mM of BGP. Met5-ligand (0-, [5-μM] 2.87-, or [50-μM] 28.7-μg; Sigma), naloxone (0-, 400-fg, 400-pg, 400-ng, 400-μg; Sigma) or naltrexone (0-, 378-fg, 378-pg, 378-ng, 378-μg; Sigma) was added as follows: 1) 1×, with the first addition of osteo-induction media, 2) 2×, with the first and second addition of osteo-induction media and 3) with each post-induction media change. […] After the appearance of mineral nodules, cells were fixed with 70% ice-cold EtOH (Sigma) and then stained using 40-mM alizarin red-S (pH 4.2, Sigma). Osteogenesis experiments were repeated at least twice for each patient.

[4] = system: unicortical defect in mouse tibia; experiment: Opioid antagonist containing collagen implant in unicortical defect model, microCT; type: in vivo, C57BL/6 mice; conditions: 7 days after surgery
Excerpt: Implantation of Opioid Antagonist Containing Collagen Implant into a Unicortical Defect Model: Male 5-week old C57BL/6 mice (n=5 per treatment group for a total of 25 total animals) were used in this study. […] Unicortical defects were surgically administered through a small incision (approximately 3-mm) made just below the knee joint, located on the medial side of the tibia just below the tibial tuberosity on the tibial crest. In 5-weeks old male mice, the physeal plate is clearly visible and the drill bit was placed approximately 1-mm below this point. The drill-bit produces a unicortical defect with dimensions 300-μm diameter×1-mm depth. […] In parallel, a separate group of animals served as non-surgical controls. Mice were euthanized 7-days after surgery, hind limbs were collected and tibias were prepared for micro-CT (μCT) analysis.
(§3) MicroCT Analysis of Unicortical Defects: High-resolution images of the tibia were acquired with μCT imaging system (μT40; Scanco Medical). Tibias were scanned at 45-keV with an isotropic voxel size of 12-μm. An analysis region was selected from axial sections to include the entire unicortical defect bounded by the endosteal cortical wall. The volume corrected bone volume (bone volume/total volume; By/Tv), trabecular number (TbN) and trabecular thickness (TbTh) were calculated using the Scanco software.

[5] = system: SaO52 osteosarcoma tumor cells; experiment: Assay of cell number (MTT), osteosarcoma cells; type: cell-based
Excerpt: as §1, §2

[6] = system: monocytes cultured to become osteoclasts; experiment: TRAP staining and assay of osteoclast number; type: cell-based, human, mouse
Procedure: TRAP Staining and the Assay of Osteoclast Number: Osteoclasts were derived from either an enriched population of human monocytes or from mouse non-enriched whole bone marrow aspirates. Three human patient bone marrow samples were assayed in parallel with samples collected from 3-week (n=10) mouse bone marrow. The monocyte fraction was stimulated to become osteoclasts by culturing 1×10^6 cells with 25-ng/mL of MCSF and 25-ng/mL of recombinant human or mouse RANK-ligand (R&D Systems) in the presence of the met5-ligand ([5-μM] 2.87-, or [50-μM] 28.7-μg; Sigma), naloxone (400-ng or 400-μg; Sigma) or naltrexone (378-ng or 378-μg; Sigma). Osteoclasts were stained with tartrate resistant acid phosphatase (TRAP; Sigma Leukocyte Acid Phosphatase Kit 387-A) and counted when cells stained TRAP-positive and had at least three nuclei. Estimates of osteoclast number were obtained by Cavalieri sampling and a modification of the fractionator technique.

[7] = system: unicortical defect in mouse tibia; experiment: Unicortical defect model, direct injection, microCT; type: in vivo, C57BL/6 mice; conditions: naloxone 1-mM or met5 50-μM
Procedure: Unicortical Defect Model: Male 3-week old C57BL/6 mice (n=5 per treatment group) were injected with met5, naloxone or naltrexone following the creation of a unicortical defect. Briefly, a small incision (approximately 3-mm) was made just below the knee joint, located on the medial side of the tibia just below the tibial tuberosity on the tibial crest. In young animals the physeal plate is clearly visible and the drill bit was placed approximately 1-mm below this point. The drill-bit produces a unicortical defect with dimensions 300-μm diameter×1-mm depth. A Hamilton Neuros RN 10-μL syringe with a 33-gauge blunt tip needle was used to inject 2-μL of met5 (28.7-μg), naloxone (400-μg) or naltrexone (378-μg) resuspended in saline directly into the unicortical defect at a rate no faster than approximately 0.1-μL per second. The left-limb tibias served as contra-lateral surgical controls, in which animals received a unicortical defect and 2-μL of saline was injected. Mice were euthanized 5-days after surgery, hind limbs were collected and tibias were fixed for immunofluorescence, TRAP staining and OTC associated bone growth.
as §3

[8] = collagen implant, 25-ng BMP2, 1-mM naltrexone or 1-mM naloxone
[9] = 50-μM met5 with collagen implant

Compound: O=C1CC[C@@]2(O)[C@H]3Cc4ccc(O)c5c4[C@@]2(CCN3CC2CC2)[C@H]1O5 [naltrexone]
- Hs822t tumor cell number relative to control cultures ([1]; 1-mM, seventy-two hours): decreased relative to the control cultures
- RDES tumor cell number relative to control cultures ([2]; 1-mM, seventy-two hours): decreased significantly
- mineral accumulation (red staining) ([3]; between 1-μM and 1-mM with osteoinduction media): increased mineral, but to a lesser extent than naloxone
- Bv/Tv relative to non-surgical controls ([4]; collagen implant): increased relative to non-surgical controls
- trabecular thickness (TbTh) relative to the control non-surgical group ([4]; collagen implant): increased within the defect significantly
- Bv/Tv compared with the BMP2 treated group ([4]; collagen implant, 1-mM): no significant difference
- increase in Bv/Tv relative to the PBS treated group [4, 8]: 39.2%
- increase in Bv/Tv relative to the surgical control group [4, 8]: 63.5%
- SaO52 osteosarcoma cell number relative to control cultures ([5]; 1-mM, seventy-two hours): decreased significantly
- osteoclast number (TRAP staining) ([6]; 1-mM): reduced osteoclast number substantially
- osteoclast number (TRAP staining) ([6]; 1-μM): did not significantly reduce osteoclast number

Compound: Tyr-Gly-Gly-Phe-Met (YGGFM; printed: Tyr-Gly-Gly-Phe-Met) [met5, opioid growth factor (OGF or met-5 enkephalin), the native ligand for the OGFR]
- Hs822t tumor cell number ([1]; 50-μM of met5): significant increase
- RDES tumor cell number ([2]; met5): no effect
- mineral accumulation ([3]; 5-μM met5 added to osteoinduction media): no effect on mineral formation in culture; also recorded: no effect on mineral accumulation
- mineral accumulation ([3]; 50-μM met5 added to osteoinduction media): no effect on mineral formation in culture; also recorded: decreased mineral accumulation slightly
- Bv/Tv greater than the non-surgical control group [4, 9]: approximately 37%
- fracture healing (Bv/Tv) compared with the surgical control group [4, 9]: not significantly different
- trabecular thickness (TbTh) relative to the control non-surgical group ([4]; collagen implant): increased within the defect significantly
- SaO52 osteosarcoma cell number ([5]; met5): had not effect on cell number
- bone healing [7]: no effect
- osteoclast number (TRAP staining) ([6]; met5, relative to control osteoclast cultures): unaffected
